Here are results for eight compounds from BindingDB's records for patent US20240190875 (Changchun Genescience Pharmaceutical Co., 2024).

Sequence of Growth hormone secretagogue receptor type 1 (Q92847 whole entry): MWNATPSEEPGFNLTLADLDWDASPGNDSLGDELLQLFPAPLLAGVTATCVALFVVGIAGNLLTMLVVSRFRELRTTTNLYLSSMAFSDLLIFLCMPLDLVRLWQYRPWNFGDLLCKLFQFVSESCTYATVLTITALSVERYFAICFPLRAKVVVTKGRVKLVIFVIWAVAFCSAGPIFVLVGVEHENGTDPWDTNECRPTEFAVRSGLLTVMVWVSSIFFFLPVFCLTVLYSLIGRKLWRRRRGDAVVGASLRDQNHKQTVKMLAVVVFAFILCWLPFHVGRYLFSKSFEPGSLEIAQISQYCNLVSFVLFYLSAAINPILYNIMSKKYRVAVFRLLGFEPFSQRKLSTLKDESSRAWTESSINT

The target of the assay is Growth hormone secretagogue receptor type 1 (Homo sapiens, UniProt Q92847). Kind of assay: Determination of Human GHSR Agonist Activity. The source says:
This method was used to determine the agonism effect of the compound of the invention on the activity of human GHSR protein expressed in human GHSR/CHO stable cell line.
The EC50 is the concentration needed to bring the measured effect to its halfway point. A lower EC50 goes with a more potent agent. `CC(C)(NC(=O)CN)C(=O)N[C@H](COCc1ccccc1)C(=O)N1CCC2(CC1)CN(S(C)(=O)=O)c1ccccc12` [US20240190875, Example 16] gave an EC50 of 9.8 nM.
In turn, `CC(C)(C)C(=O)OCOC(=O)NC(C)(C)C(=O)N[C@H](COCc1ccccc1)C(=O)N1CCC2(CC1)CN(S(C)(=O)=O)c1ccccc12` [US20240190875, Example 21] came in with an EC50 of 18.3 nM.
Then `CC(=O)/C=C(/C)NC(C)(C)C(=O)N[C@H](COCc1ccccc1)C(=O)N1CCC2(CC1)CN(S(C)(=O)=O)c1ccccc12` [US20240190875, Example 19], with 24.3 nM; and `CC(C)(NC(=O)[C@@H](N)CCC(N)=O)C(=O)N[C@H](COCc1ccccc1)C(=O)N1CCC2(CC1)CN(S(C)(=O)=O)c1ccccc12` [US20240190875, Example 1], with 15.6 nM; and `C[n+]1cccc(C(=O)NC(C)(C)C(=O)N[C@H](COCc2ccccc2)C(=O)N2CCC3(CC2)CN(S(C)(=O)=O)c2ccccc23)c1` [US20240190875, Example 18], with 15.1 nM.
For `CC(C)C(=O)OCOC(=O)NC(C)(C)C(=O)N[C@H](COCc1ccccc1)C(=O)N1CCC2(CC1)CN(S(C)(=O)=O)c1ccccc12` [US20240190875, Example 15], the midpoint of the response, the EC50, lay at 4.3 nM. Against the preceding compound, the EC50 is about 3.5-fold lower.
In turn, `Cc1oc(=O)oc1COC(=O)NC(C)(C)C(=O)N[C@H](COCc1ccccc1)C(=O)N1CCC2(CC1)CN(S(C)(=O)=O)c1ccccc12` [US20240190875, Example 17] registered an EC50 of 24.5 nM.
Compound `CC(=O)OCOC(=O)NC(C)(C)C(=O)N[C@H](COCc1ccccc1)C(=O)N1CCC2(CC1)CN(S(C)(=O)=O)c1ccccc12` [US20240190875, Example 22] came in with an EC50 of 9.3 nM.
